Reference: ChEMBL document CHEMBL3297733, “Discovery and optimization of pyrrolo[1,2-a]pyrazinones leads to novel and selective inhibitors of PIM kinases” (Bioorg Med Chem, 2013)

Columns and labels:
[1] = AUC in BALB/c mouse at 8.2 mg/kg, po; format: ADME, organism-based; parameters: dose 8.2 mg/kg, route oral; conditions: plasma
[2] = Oral bioavailability in BALB/c mouse at 8.2 mg/kg; format: ADME, organism-based; conditions: in vivo
[3] = Half life in BALB/c mouse at 8.2 mg/kg, iv; format: ADME, organism-based; parameters: dose 8.2 mg/kg, route intravenous; conditions: in vivo
[4] = Clearance in BALB/c mouse at 8.2 mg/kg, iv; format: ADME, organism-based; parameters: dose 8.2 mg/kg, route intravenous; conditions: in vivo
[5] = target: hERG (KCNH2) (Homo sapiens, UniProt Q12809); assay: Inhibition of human ERG channel at 10 uM
hERG (KCNH2), sequence (Q12809 whole entry): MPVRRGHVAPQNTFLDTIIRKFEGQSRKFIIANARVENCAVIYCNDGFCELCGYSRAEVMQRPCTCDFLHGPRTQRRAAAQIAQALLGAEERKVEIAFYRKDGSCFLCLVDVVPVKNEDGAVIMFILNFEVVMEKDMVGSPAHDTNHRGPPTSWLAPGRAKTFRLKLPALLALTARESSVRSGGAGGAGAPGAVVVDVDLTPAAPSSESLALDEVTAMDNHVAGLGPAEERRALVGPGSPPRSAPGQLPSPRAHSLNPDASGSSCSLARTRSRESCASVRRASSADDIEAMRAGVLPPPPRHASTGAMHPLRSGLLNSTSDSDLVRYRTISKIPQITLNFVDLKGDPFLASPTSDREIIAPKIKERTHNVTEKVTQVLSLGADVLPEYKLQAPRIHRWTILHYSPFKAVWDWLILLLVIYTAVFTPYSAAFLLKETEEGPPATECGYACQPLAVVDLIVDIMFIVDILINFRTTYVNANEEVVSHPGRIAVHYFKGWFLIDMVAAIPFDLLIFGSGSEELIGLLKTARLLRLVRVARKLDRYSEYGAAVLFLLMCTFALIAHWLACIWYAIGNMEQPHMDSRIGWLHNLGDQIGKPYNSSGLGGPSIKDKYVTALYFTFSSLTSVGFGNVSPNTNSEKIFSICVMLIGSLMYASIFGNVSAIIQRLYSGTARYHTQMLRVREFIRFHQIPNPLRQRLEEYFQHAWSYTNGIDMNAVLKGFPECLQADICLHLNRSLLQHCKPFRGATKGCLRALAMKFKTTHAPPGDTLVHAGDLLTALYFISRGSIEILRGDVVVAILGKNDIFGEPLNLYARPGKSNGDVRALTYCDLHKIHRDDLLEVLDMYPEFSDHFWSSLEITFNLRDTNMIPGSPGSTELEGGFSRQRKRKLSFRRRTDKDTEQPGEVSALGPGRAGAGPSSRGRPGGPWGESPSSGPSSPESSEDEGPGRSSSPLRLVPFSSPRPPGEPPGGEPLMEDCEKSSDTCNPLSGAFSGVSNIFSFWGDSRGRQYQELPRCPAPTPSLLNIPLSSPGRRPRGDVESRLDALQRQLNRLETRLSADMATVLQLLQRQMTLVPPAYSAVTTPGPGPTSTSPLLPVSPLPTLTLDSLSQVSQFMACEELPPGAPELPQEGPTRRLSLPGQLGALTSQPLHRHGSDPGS

[6] = target: Cytochrome P450 3A4 (Homo sapiens, UniProt P08684); assay: Inhibition of CYP3A4 (unknown origin); format: ADME
[7] = target: Cytochrome P450 2D6 (Homo sapiens, UniProt P10635); assay: Inhibition of CYP2D6 (unknown origin); format: ADME
[8] = Intrinsic clearance in dog hepatocytes; format: ADME, cell-based, Canis lupus familiaris, Hepatocyte; conditions: read-out: CLH
[9] = Clearance in human hepatocytes; format: ADME, cell-based, Hepatocyte; conditions: read-out: CLH
[10] = Plasma protein binding in mouse; format: ADME; conditions: read-out: PPB (converted)
[11] = Plasma protein binding in human; format: ADME, cell-free; conditions: read-out: PPB (converted)
[12] = Plasma protein binding in rat; format: ADME, cell-free; conditions: read-out: PPB (converted)
[13] = target: Serine/threonine-protein kinase pim-1 (Mus musculus) (UniProt P06803); assay: Inhibition of PIM1 in mouse BA/F3 cells assessed as phosphorylation of 4EBP1 at T37/T46 after 24 hrs by Western blotting analysis; format: cell-based; conditions: BaF3
Serine/threonine-protein kinase pim-1 (Mus musculus), sequence (P06803 whole entry, looked up): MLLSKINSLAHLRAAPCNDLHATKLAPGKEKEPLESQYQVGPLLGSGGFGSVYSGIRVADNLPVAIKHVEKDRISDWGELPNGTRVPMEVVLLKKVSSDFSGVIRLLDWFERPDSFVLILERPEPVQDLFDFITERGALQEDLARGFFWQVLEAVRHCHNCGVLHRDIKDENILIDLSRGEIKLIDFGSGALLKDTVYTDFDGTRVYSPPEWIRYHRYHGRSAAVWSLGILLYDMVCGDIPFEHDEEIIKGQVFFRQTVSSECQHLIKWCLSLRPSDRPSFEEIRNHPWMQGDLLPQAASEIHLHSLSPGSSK

[14] = target: Serine/threonine-protein kinase pim-1 (Mus musculus) (UniProt P06803); assay: Inhibition of PIM1 in mouse BA/F3 cells assessed as phosphorylation of BAD at S112 after 24 hrs by Western blotting analysis; format: cell-based; conditions: BaF3
[15] = target: Serine/threonine-protein kinase pim-1 (Mus musculus) (UniProt P06803); assay: Inhibition of PIM1 in mouse BA/F3 cells assessed as c-Myc degradation after 24 hrs by Western blotting analysis; format: cell-based; conditions: BaF3
[16] = test system: RPMI-8226; assay: Cytotoxicity against human RPMI8226 cells after 72 hrs by CellTitre-Glo assay; format: functional, cell-based; conditions: RPMI-8226, 72 h
[17] = Cytotoxicity against human KMS11 cells after 72 hrs by CellTitre-Glo assay; format: functional, cell-based; conditions: KMS-11, 72 h
[18] = test system: LNCaP; assay: Cytotoxicity against human LNCAP cells after 72 hrs by CellTitre-Glo assay; format: functional, cell-based
[19] = test system: LP-1; assay: Cytotoxicity against human LP-1 cells after 72 hrs by CellTitre-Glo assay; format: functional, cell-based; conditions: LP-1, 72 h
[20] = Apparent permeability from apical to basolateral side in human Caco2 cells after 120 mins by LC-MS/MS analysis; conditions: Caco-2
[21] = Cytotoxicity against mouse BA/F3 cells overexpressing PIM1 after 72 hrs by CellTitre-Glo assay; format: functional, cell-based; conditions: BaF3, 72 h
[22] = target: Tyrosine-protein kinase ZAP-70 (Homo sapiens, UniProt P43403); assay: Inhibition of ZAP70 (unknown origin)
Tyrosine-protein kinase ZAP-70, sequence (P43403 whole entry): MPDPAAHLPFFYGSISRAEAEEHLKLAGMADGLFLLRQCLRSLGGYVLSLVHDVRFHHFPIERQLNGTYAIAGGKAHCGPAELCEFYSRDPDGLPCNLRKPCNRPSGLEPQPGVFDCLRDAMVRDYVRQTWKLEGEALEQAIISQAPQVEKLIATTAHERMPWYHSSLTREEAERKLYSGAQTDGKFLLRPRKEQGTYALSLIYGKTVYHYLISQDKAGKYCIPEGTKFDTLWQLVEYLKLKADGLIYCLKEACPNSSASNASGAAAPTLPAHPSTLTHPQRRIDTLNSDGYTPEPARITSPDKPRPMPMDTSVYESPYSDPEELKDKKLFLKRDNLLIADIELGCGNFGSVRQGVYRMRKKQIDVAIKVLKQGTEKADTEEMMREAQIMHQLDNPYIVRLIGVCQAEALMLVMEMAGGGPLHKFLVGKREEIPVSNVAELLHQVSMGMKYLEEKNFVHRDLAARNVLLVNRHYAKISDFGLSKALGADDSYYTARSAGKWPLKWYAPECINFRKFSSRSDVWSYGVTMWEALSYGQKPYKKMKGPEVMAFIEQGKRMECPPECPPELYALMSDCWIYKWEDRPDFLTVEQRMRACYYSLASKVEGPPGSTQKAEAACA

[23] = target: Non-receptor tyrosine-protein kinase TYK2 (Homo sapiens, UniProt P29597); assay: Inhibition of TYK2 (unknown origin)
[24] = target: Vascular endothelial growth factor receptor 2 (Homo sapiens, UniProt P35968); assay: Inhibition of VEGFR2 (unknown origin)
[25] = target: Tyrosine-protein kinase SYK (Homo sapiens, UniProt P43405); assay: Inhibition of Syk (unknown origin)
[26] = target: High affinity nerve growth factor receptor (Homo sapiens, UniProt P04629); assay: Inhibition of TRKA (unknown origin)
[27] = target: Proto-oncogene tyrosine-protein kinase ROS (Homo sapiens, UniProt P08922); assay: Inhibition of ROS1 (unknown origin)
[28] = Inhibition of SULU1 (unknown origin); parameters: species or system Homo sapiens
[29] = target: Protein kinase C beta type (Homo sapiens, UniProt P05771); assay: Inhibition of PKC-beta (unknown origin)
[30] = Inhibition of PKA-alpha (unknown origin); parameters: species or system Homo sapiens
[31] = target: Platelet-derived growth factor receptor (Homo sapiens, UniProt P09619+P16234); assay: Inhibition of PDGFR (unknown origin); format: protein-complex assay
[32] = target: Serine/threonine-protein kinase 26 (Homo sapiens, UniProt Q9P289); assay: Inhibition of MST4 (unknown origin)
[33] = target: MAP kinase-interacting serine/threonine-protein kinase 2 (Homo sapiens, UniProt Q9HBH9); assay: Inhibition of MNK2 (unknown origin)
[34] = target: Maternal embryonic leucine zipper kinase (Homo sapiens, UniProt Q14680); assay: Inhibition of MELK (unknown origin)
Maternal embryonic leucine zipper kinase, sequence (Q14680 whole entry): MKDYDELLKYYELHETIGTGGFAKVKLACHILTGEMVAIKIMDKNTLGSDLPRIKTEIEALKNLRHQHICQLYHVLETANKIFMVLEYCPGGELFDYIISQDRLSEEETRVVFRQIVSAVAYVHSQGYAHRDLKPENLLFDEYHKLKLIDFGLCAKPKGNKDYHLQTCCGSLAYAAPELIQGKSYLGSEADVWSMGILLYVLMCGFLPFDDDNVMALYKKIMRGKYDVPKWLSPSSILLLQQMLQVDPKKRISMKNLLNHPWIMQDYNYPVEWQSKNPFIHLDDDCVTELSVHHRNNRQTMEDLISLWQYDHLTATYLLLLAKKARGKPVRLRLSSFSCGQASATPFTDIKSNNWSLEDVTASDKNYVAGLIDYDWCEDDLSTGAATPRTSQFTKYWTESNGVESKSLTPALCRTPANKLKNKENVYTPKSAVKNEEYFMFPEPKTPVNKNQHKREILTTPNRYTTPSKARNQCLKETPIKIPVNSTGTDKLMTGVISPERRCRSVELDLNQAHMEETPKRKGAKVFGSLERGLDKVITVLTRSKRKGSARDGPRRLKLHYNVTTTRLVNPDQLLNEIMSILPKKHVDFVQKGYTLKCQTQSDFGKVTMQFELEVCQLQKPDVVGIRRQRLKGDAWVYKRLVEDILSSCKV

[35] = target: Hepatocyte growth factor receptor (Homo sapiens, UniProt P08581); assay: Inhibition of c-MET (unknown origin)
[36] = target: Tyrosine-protein kinase Lck (Homo sapiens, UniProt P06239); assay: Inhibition of LCK (unknown origin)
[37] = target: Tyrosine-protein kinase Lyn (Homo sapiens, UniProt P07948); assay: Inhibition of LYN (unknown origin)
[38] = target: Tyrosine-protein kinase JAK3 (Homo sapiens, UniProt P52333); assay: Inhibition of JAK3 (unknown origin)
Tyrosine-protein kinase JAK3, sequence (P52333 whole entry): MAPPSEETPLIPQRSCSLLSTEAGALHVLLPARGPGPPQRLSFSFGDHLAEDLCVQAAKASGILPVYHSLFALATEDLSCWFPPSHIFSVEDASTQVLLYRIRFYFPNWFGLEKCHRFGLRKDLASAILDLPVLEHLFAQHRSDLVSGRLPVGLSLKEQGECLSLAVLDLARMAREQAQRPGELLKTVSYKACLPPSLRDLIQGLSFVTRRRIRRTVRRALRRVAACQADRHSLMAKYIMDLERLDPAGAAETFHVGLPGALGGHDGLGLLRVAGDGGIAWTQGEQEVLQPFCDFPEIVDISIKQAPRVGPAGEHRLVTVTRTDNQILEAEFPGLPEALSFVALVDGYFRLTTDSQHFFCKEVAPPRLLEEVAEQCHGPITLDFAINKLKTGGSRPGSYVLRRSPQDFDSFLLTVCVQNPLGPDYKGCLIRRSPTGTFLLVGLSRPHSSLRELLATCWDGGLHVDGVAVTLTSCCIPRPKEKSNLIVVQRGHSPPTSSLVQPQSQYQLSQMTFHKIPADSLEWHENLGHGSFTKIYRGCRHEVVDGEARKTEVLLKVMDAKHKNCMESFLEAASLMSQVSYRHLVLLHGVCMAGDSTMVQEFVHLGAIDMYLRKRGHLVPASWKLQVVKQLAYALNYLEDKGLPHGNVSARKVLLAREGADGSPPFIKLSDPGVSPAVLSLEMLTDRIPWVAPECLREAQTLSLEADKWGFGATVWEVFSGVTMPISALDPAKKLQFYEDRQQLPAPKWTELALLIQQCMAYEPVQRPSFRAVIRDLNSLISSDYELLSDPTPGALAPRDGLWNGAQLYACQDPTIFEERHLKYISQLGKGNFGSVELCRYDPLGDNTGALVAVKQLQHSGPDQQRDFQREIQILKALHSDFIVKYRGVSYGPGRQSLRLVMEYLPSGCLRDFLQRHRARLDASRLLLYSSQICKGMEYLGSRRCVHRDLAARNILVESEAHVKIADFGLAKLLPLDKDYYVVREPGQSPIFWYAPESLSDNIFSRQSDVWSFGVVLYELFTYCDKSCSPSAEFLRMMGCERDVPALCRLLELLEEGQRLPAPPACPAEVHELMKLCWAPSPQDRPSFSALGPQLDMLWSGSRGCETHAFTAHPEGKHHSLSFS

[39] = target: Tyrosine-protein kinase JAK2 (Homo sapiens, UniProt O60674); assay: Inhibition of JAK2 (unknown origin)
[40] = target: Inhibitor of nuclear factor kappa-B kinase subunit beta (Homo sapiens, UniProt O14920); assay: Inhibition of IKK2 (unknown origin)
[41] = target: Glycogen synthase kinase-3 beta (Homo sapiens, UniProt P49841); assay: Inhibition of GSK3beta (unknown origin)
[42] = target: Fibroblast growth factor receptor 1 (Homo sapiens, UniProt P11362); assay: Inhibition of FGFR1 (unknown origin)
[43] = target: Ephrin type-A receptor 2 (Homo sapiens, UniProt P29317); assay: Inhibition of EphA2 (unknown origin)
[44] = target: Focal adhesion kinase 1 (Homo sapiens, UniProt Q05397); assay: Inhibition of FAK (unknown origin)
[45] = target: Epidermal growth factor receptor (Homo sapiens, UniProt P00533); assay: Inhibition of EGFR1 (unknown origin)
Epidermal growth factor receptor, sequence (P00533 whole entry): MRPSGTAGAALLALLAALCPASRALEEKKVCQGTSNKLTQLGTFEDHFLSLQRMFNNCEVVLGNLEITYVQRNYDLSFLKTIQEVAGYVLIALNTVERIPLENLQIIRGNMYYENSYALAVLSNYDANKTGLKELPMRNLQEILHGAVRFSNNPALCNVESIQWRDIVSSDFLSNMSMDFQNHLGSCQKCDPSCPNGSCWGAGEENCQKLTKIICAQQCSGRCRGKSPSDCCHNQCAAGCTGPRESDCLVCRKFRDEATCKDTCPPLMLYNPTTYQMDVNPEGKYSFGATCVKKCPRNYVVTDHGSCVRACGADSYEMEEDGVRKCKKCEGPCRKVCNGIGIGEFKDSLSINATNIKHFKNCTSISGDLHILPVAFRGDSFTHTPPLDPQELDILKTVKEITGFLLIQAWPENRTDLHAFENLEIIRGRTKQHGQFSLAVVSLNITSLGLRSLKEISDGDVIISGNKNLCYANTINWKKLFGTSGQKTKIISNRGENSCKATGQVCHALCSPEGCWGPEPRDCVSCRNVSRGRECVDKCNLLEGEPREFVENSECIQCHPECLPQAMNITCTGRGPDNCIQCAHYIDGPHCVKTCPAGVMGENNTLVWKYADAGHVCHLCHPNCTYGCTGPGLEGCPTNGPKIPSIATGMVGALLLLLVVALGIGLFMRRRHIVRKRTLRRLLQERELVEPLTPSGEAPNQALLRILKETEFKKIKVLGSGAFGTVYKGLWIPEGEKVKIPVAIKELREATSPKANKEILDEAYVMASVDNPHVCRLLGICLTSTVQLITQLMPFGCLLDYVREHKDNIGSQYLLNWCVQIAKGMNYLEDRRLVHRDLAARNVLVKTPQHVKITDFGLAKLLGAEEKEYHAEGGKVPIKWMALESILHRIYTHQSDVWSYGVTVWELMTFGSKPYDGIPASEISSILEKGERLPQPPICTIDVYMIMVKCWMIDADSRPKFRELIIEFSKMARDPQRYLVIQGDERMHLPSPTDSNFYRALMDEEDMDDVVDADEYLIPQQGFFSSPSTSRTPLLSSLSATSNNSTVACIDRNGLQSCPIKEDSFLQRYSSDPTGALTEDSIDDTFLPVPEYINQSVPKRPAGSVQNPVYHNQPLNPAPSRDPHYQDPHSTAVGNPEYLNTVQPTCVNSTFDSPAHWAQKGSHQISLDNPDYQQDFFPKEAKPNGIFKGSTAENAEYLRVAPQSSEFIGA

[46] = target: Eukaryotic elongation factor 2 kinase (Homo sapiens, UniProt O00418); assay: Inhibition of EEF2K (unknown origin)
[47] = target: Serine/threonine-protein kinase Chk1 (Homo sapiens, UniProt O14757); assay: Inhibition of CHK1 (unknown origin)
[48] = target: CDC7/DBF4 (Cell division cycle 7-related protein kinase/Activator of S phase kinase) (Homo sapiens, UniProt O00311); assay: Inhibition of CDC7/DBF4 (unknown origin); format: protein-complex assay
[49] = target: Aurora kinase B (Homo sapiens, UniProt Q96GD4); assay: Inhibition of aurora kinase 2 (unknown origin)
[50] = target: Aurora kinase A (Homo sapiens, UniProt O14965); assay: Inhibition of aurora kinase 1 (unknown origin)
[51] = target: Tyrosine-protein kinase ABL1 (Homo sapiens, UniProt P00519); assay: Inhibition of Bcr-ABL (unknown origin)
[52] = target: Activated CDC42 kinase 1 (Homo sapiens, UniProt Q07912); assay: Inhibition of ACK1 (unknown origin)
[53] = target: Serine/threonine-protein kinase pim-1 (Homo sapiens, UniProt P11309); assay: Inhibition of human PIM1 using ARK-RERTYSFGHHA as substrate incubated for 60 mins prior to substrate addition by topcount scintillation counting analysis in presence of [P33gamma]-ATP

AUC [1]: 0.05 µM·h
bioavailability [2]: 0.65%
half-life [3]: 13.6 h
clearance [4]: 28 mL/min/kg
IC50 [6]: > 10 µM
IC50 [7]: > 10 µM
CLint scaled [8]: 11 mL/min/kg
CLint scaled [9]: 5.9 mL/min/kg
fraction unbound [10]: 0.02
fraction unbound [11]: 0.03
fraction unbound [12]: 0.036
inhibition [13]: Dose-dependent effect
inhibition [14]: Dose-dependent effect
inhibition [15]: Dose-dependent effect
Papp A→B at 2 h [20]: 8.4 ×10⁻⁶ cm/s
IC50 [22]: > 10 µM
IC50 [23]: > 10 µM
IC50 [24]: > 10 µM
IC50 [25]: > 10 µM
IC50 [26]: > 10 µM
IC50 [27]: > 10 µM
IC50 [28]: > 10 µM
IC50 [29]: > 10 µM
IC50 [30]: > 10 µM
IC50 [31]: > 10 µM
IC50 [32]: > 10 µM
IC50 [33]: > 10 µM
IC50 [34]: > 10 µM
IC50 [35]: > 10 µM
IC50 [36]: > 10 µM
IC50 [37]: > 10 µM
IC50 [38]: > 10 µM
IC50 [39]: > 10 µM
IC50 [40]: > 10 µM
IC50 [41]: > 10 µM
IC50 [42]: > 10 µM
IC50 [43]: > 10 µM
IC50 [44]: > 10 µM
IC50 [45]: > 10 µM
IC50 [46]: > 10 µM
IC50 [47]: > 10 µM
IC50 [48]: > 10 µM
IC50 [49]: > 10 µM
IC50 [50]: > 10 µM
IC50 [51]: > 10 µM
IC50 [52]: > 10 µM
IC50 [53]: 0.03 µM
Structure (SMILES): CN1CCN(C[C@@H](NC(=O)C[C@H]2CNC(=O)c3cc(-c4cccc(Cl)c4)cn32)C2CCCCC2)CC1
inhibition at 10 µM [5]: 16%
IC50 [16]: 6.66 µM
IC50 [17]: 7.13 µM
IC50 [18]: 3.31 µM
IC50 [19]: 1.93 µM
IC50 [21]: 0.125 µM
